Source: paper PMC10454728, “A Comparative Study on the Lysosomal Cation Channel TMEM175 Using Automated Whole-Cell Patch-Clamp, Lysosomal Patch-Clamp, and Solid Supported Membrane-Based Electrophysiology: Functional Characterization and High-Throughput Screening Assay Development” (International Journal of Molecular Sciences, 2023)

Target: T1, TMEM175 (Homo sapiens, UniProt Q9BSA9)
T1 sequence (Q9BSA9 1-504): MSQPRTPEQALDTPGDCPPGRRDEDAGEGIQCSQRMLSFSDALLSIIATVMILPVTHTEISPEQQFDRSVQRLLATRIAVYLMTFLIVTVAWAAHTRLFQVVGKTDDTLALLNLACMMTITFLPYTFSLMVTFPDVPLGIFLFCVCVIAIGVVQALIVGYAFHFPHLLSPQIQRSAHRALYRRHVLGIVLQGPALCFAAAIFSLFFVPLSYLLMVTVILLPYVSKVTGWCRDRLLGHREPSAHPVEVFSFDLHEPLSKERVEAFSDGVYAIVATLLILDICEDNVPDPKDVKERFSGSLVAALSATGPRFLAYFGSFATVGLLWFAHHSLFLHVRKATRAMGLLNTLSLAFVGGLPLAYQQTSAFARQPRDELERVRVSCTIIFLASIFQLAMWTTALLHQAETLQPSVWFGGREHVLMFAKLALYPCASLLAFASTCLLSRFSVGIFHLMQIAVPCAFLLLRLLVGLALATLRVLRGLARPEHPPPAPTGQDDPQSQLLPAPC
Assay: SSME H+ flux assay (pH jumps) on TMEM175 lysosomes (SURFE2R N1)
Format: biochemical
Conditions: 10 mM 4-AP
Text: To further investigate the capability of TMEM175 to translocate protons using SSME, we performed H^+ concentration or pH jumps using the SURFE^2R N1. The non-activating solution was set to pH 7.6, defining both the lysosomal and cytosolic pH before the start of the experiment. By exchanging the non-activating for the activating solution, we acidified the cytosolic solution and stimulated H^+ influx through TMEM175 (Figure 5A).
However, the application of pH jumps lead to significant artifact currents of positive magnitude, as observed with the control lysosomes (Figure 5C). These artifacts are a result of protons interacting with the lipid membranes and/or unknown H^+ leak pathways through the lysosomal membrane. To conclude pure TMEM175-related H^+ currents, we subtracted the artifact currents from the currents recorded with the TMEM175 sample. When plotting ΔpH against the artifact-corrected average TMEM175 net H^+ current, we obtain a close-to-linear correlation (Figure 5D).
For comparison with the I/c curve reported for K^+ (Figure 3E), we calculated the difference in H^+ concentration across the lysosomal membrane Δc = cH^out − cH^in, which correlates linearly with the passive H^+ flux J = PH+Δc according to Fick’s law.
We used H^+ concentration or pH jumps to measure H^+ flux through TMEM175. Non-activating solution was set to pH 7.6, while activating solution contained different pH values between pH 7.4 and pH 4.6; (B) Representative current traces induced by pH jumps on lysosomes overexpressing TMEM175. All current traces were recorded with the same sensor, starting from the lowest ΔpH. […] The remaining current mostly reflects the background (artifact) current after full block of TMEM175; (C) Representative current traces from the same experiment on control lysosomes. […] This represents the artifact current also underlying the currents recorded with the TMEM175 sample; (D) SEM and average, artifact-corrected, normalized peak currents from N = 4 sensors, reflecting the H^+ flux through TMEM175, solely driven by the pH gradient. […]

## Nc1ccncc1 [4-AP, 4-aminopyridine]
ΔpH 3.0, pH 7.6 to 4.6
  Block of H+ influx current: full block
Potency lower than for H+ influx
  Effect on H+ efflux currents: inhibited
